Measurements from US20250325684A1, “POTENT ANTI-CANCER CYCLOTIDES” (University of Southern California, priority 2022, published 2025).
“Also recorded” adds a separate entry of the source. Numbered stars: 1 amine (or outer) side, 2 acyl side, 3 side chain; on linkers, the order of the positions; unused ones are H or OH. Bridge positions count the residues as written; N and C are the ends. Square brackets hold non-standard residues; d marks the D form. I, II: the chains in the order shown. X1 = O=C(CCc1cn(CCOCCOCCOCCC(=O)[*:2])nn1)[*:1]; isoGln = NC(=O)[C@H](CCC(=O)[*:2])N[*:1]

Legend:
[1] = Toxicity observation in tumor-bearing mice; assay type: in vivo, mouse; conditions: dosed up to 40 mg/kg three times per week
Protocol: Tumor samples were also subjected to SDS-PAGE and analyzed by western blotting for p53, Hdm2, and p21. GAPDH was used as loading control in western blots.
Mice xenografts studies. HCT116 p53^−/− and CT26 xenografts were established by injecting 100 uL suspension of basal RPMI containing 0.5×10^6 cells into the rear right flanks of female nude mice (nu/nu) mice (HCT116) or Balb/C (CT26). […] Compounds were prepared in a D5W at a final volume of 50 μL (peptide) or 100 μL (Nutlin-3). Health checks were performed daily to observe parameters such as body conditioning score, overall appearance and cleanliness, strength of grip, skin color and tone, mobility, gait and activity level as indicators of potential drug related toxicities. Individual weights were recorded thrice weekly, comparing the control and treatment groups as an additional indicator of tolerance of drug treatment as well as providing the average weight for calculation of drug dosing. Tumor size was measured with calipers. Tumor volume was calculated by measuring tumor size in two dimensions and applying those measurements to the calculation V=d^2×D/2, where d and D equal to the smaller and larger of the two measurements, respectively. Mice bearing tumors larger than 2.4 cm^3 were removed from the study, sacrificed and necropsies performed to gather tumor and organ samples for histological analysis. […]

[2] = system: p53, FOXO3a, RUNX3, ATF3, DYRK2 and HIPK2 in HCT116 cell lines; assay: Stabilization of Hdm2/HdmX E3 ligase substrates in HCT116 cell lines; assay type: cell-based, human; conditions: HCT116 cell lines with p53-wt and -null phenotype; listed as MCo-52-2-cTAT
Protocol: Stabilization of p53 could be observed just 8 h after treating the cells with the bioactive cyclotide (FIG. 5B), likely indicating the cyclotide crosses the cellular membrane into the cytosol through an endocytic mechanism as previously described for this type of microproteins (30, 31). […] These transcription factors (ATF3, FOXO3a and RUNX3) and kinases (DYRK2 and HIPK2) have been described to be regulated by the E3 ligase activity of Hdm2/HdmX (6). […] In both cases the peptide was able to inhibit tumor growth by 60% (HCT116-nude mice) and 80% (CT26-Balb/c mice) (FIG. 7).

For “I: cyclo(ACICRHDSYCGSGSDGGVCPNLYLLCRRDKDCPG) / II: KK[dR]R[dR]G[dR]K[dK]R[dR][isoGln] (disulfide I:2-I:19, I:4-I:26, I:10-I:32; linker I:30-II:N via X1; lactam II:1-II:C) [Cyclotide 52-2-cTAT]”, the Toxic effects [1] was “No toxic effects were detected” and the “Stabilization of transcription factors and kinases” value [2] was “stabilize ATF3, FOXO3a, RUNX3, DYRK2 and HIPK2; also recorded: stabilizes transcription factors p53, FOXO3a, RUNX3, ATF3, and kinases DYRK2 and HIPK2”.
